According to patent US6344451B1, “Pyrrolobenzodiazepine carboxyamide vasopressin agonists” (American Home Products, priority 1999, dated 2002):

Target: T1, Vasopressin V2 (Rattus norvegicus, UniProt Q00788)
T1 construct: Male or female normotensive Sprague-Dawley rats; from tissue; host or cells: whole living Sprague-Dawley rat (V2 receptors of the kidney collecting ducts)
Test: Vasopressin V2 agonist effects of test compounds in normal conscious water-loaded rats
Assay type: in vivo
Conditions: oral dose of 10 mg/Kg, urine collected for four hours, Sprague-Dawley (CD) rats; for Changes in Urinary Osmolality: osmolality changes expressed as percent of control; for Urine Volume (% decrease): percent decrease in urine volume vs. control
Source text: Vasopressin V2 Agonist Effects of Test Compounds in Normal Conscious Water-Loaded Rats:
Male or female normotensive Sprague-Dawley rats (Charles River Laboratories, Inc., Kingston, N.Y.) of 350-500 g body weight were supplied with standard rodent diet (Purina Rodent Lab. Chow 5001) and water ad libitum. On the day of test, rats were placed individually into metabolic cages equipped with devices to separate the feces from the urine and containers for collection of urine. A test compound or a reference agent was given at an oral dose of 10 mg/Kg in a volume of 10 mL/Kg. The vehicle used was 20% dimethylsulfoxide (DMSO) in 2.5% preboiled corn starch. Thirty minutes after dosing the test compound, rats were gavaged with water at 30 mL/Kg into the stomach using a feeding needle. During the test, rats were not provided with water or food. Urine was collected for four hours after dosing of the test compound. At the end of four hours, urine volume was measured. Urinary osmolality was determined using a Fiske One-Ten Osmometer (Fiske Associates, Norwood, Mass., 02062) or an Advanced CRYOMATIC Osmometer, Model 3C2 (Advanced Instruments, Norwood, Mass.). Determinations of Na^+, K^+ and Cl^− ion were carried out using ion specific electrodes in a Beckman SYNCHRON EL-ISE Electrolyte System analyzer. The urinary osmolality should increase proportionally. In the screening test, two rats were used for each compound. If the difference in the urine volume of the two rats was greater than 50%, a third rat was used.

T1 sequence (Q00788 whole entry): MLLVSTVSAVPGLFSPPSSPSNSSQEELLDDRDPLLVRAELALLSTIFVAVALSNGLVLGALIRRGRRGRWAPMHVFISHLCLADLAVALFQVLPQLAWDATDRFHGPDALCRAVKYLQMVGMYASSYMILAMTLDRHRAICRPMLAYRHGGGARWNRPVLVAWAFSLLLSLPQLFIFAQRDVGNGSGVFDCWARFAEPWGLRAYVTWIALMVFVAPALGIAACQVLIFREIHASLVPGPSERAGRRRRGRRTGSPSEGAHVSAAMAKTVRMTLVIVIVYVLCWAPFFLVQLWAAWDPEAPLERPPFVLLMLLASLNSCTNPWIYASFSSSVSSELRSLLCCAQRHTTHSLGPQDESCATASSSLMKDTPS

Question: `O=C(c1ccc2c(c1)CCO2)N1Cc2cccn2Cc2ccccc21` [Example 3, (2,3-Dihvdro-benzofuran-5-yl)-(5H-10.11-dihydro-pyrrolo [2,1-c][1,4]benzodiazepin-10-yl)-methanone] was tested. Which “Changes in Urinary Osmolality” value did it give?
Answer: The value was 10% of control.

Question: And the “Urine Volume (% decrease)” value?
Answer: The value was 32 % decrease.

Question: With `Cn1ccc2cc(C(=O)N3Cc4cccn4Cc4ccccc43)ccc21` [Example 1, (5H-10,11-Dihydro-pyrrolo [2,1-c][1,4]benzodiazepin-10-yl)-(1-methyl-1H-indol-5-yl)-methanone] as the compound, how does the “Changes in Urinary Osmolality” value read?
Answer: The value was 174% of control.

Question: What about the “Urine Volume (% decrease)” value of the same compound?
Answer: Its value is 66 % decrease.

Question: How did the “Changes in Urinary Osmolality” value turn out when `O=C(c1ccc2c(c1)OCO2)N1Cc2cccn2Cc2ccccc21` [Example 2, Benzo[1,3]dioxol-5-yl-(5H-10,11-dihydro-pyrrolo [2,1-c][1,4]benzodiazepin-10-yl)-methanone] was run?
Answer: Its value is 41% of control.

Question: And the “Urine Volume (% decrease)” value?
Answer: The value was 23 % decrease.

Question: With `O=C(c1ccc2ncsc2c1)N1Cc2cccn2Cc2ccccc21` [Example 4, (Benzothiazol-6-yl)-(5H-10,11-dihydro-pyrrolo[2,1-c][1,4]benzodiazepin-10-yl)-methanone] as the compound, how does the “Changes in Urinary Osmolality” value read?
Answer: The value was 3% of control.

Question: What about the “Urine Volume (% decrease)” value of the same compound?
Answer: Its value is 19 % decrease.
